Laboratory results from PubChem BioAssay (NCI).
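96-well plates; 48 h exposure; 5 concentrations. Endpoints by linear interpolation between flanking doses. Not reached: highest tested concentration assigned. TGI: concentration producing complete growth inhibition.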

Tests used:
Experiment in all cases: growth of human tumour cells (NCI), 48 h
[1] = system: DU-145 prostate
[2] = system: SW-620 colon
[3] = system: HCC-2998 colon
[4] = system: OVCAR-5 ovarian
[5] = system: KM12 colon
[6] = system: NCI/ADR-RES ovarian
[7] = system: BT-549 breast
[8] = system: 786-0 renal
[9] = system: T-47D breast
[10] = system: SF-539 CNS
[11] = system: KM20L2 colon
[12] = system: HOP-92 NSCLC
[13] = system: MOLT-4 leukemia
[14] = system: RXF 393 renal
[15] = system: MALME-3M melanoma
[16] = system: A549 NSCLC
[17] = system: CAKI-1 renal
[18] = system: HS 578T breast
[19] = system: CCRF-CEM leukemia
[20] = system: SN12C renal
[21] = system: SNB-75 CNS
[22] = system: IGROV1 ovarian
[23] = system: NCI-H226 lung
[24] = system: ACHN renal
[25] = system: NCI-H522 lung
[26] = system: PC-3 prostate
[27] = system: SNB-19 CNS
[28] = system: SK-MEL-5 melanoma
[29] = system: K-562 leukemia
[30] = system: UACC-62 melanoma
[31] = system: UACC-257 melanoma
[32] = system: SF-295 CNS
[33] = system: DMS 114 small cell lung
[34] = system: HCT-116 colon
[35] = system: EKVX NSCLC
[36] = system: LXFL 529 NSCLC
[37] = system: RPMI-8226 leukemia
[38] = system: XF 498 CNS
[39] = system: TK-10 renal
[40] = system: HOP-62 NSCLC
[41] = system: NCI-H23 lung
[42] = system: M19-MEL melanoma
[43] = system: MDA-N
[44] = system: A498 renal
[45] = system: NCI-H460 lung
[46] = system: HT29 colon
[47] = system: SR leukemia
[48] = system: UO-31 renal
[49] = system: MCF7 breast
[50] = system: M14 melanoma
[51] = system: OVCAR-8 ovarian
[52] = system: U251 CNS
[53] = system: SK-MEL-2 melanoma
[54] = system: HL-60(TB) leukemia
[55] = system: SF-268 CNS
[56] = system: DLD-1 colon
[57] = system: HOP-18 NSCLC
[58] = system: SK-MEL-28 melanoma
[59] = system: SK-OV-3 ovarian
[60] = system: MDA-MB-231 breast
[61] = system: OVCAR-3 ovarian
[62] = system: OVCAR-4 ovarian
[63] = system: COLO 205 colon
[64] = system: HCT-15 colon
[65] = system: LOX IMVI melanoma
[66] = system: MDA-MB-435
[67] = system: SNB-78 CNS
[68] = system: DMS 273 small cell lung

## COc1nc(NC2OC(COC(C)=O)C(OC(C)=O)C(OC(C)=O)C2OC(C)=O)c(N=CC=Nc2c(NC3OC(COC(C)=O)C(OC(C)=O)C(OC(C)=O)C3OC(C)=O)nc(OC)n(C)c2=O)c(=O)n1C (stereo not given)
[1]
  TGI: > 100 µM
[2]
  TGI: > 100 µM
[3]
  TGI: > 100 µM
[4]
  TGI: > 100 µM
[5]
  TGI: > 100 µM
[6]
  TGI: > 100 µM
[7]
  TGI: > 100 µM
[8]
  TGI: > 100 µM
[9]
  TGI: > 100 µM
[10]
  TGI: > 100 µM
[11]
  TGI: > 100 µM
[12]
  TGI: > 93.1 µM
[13]
  TGI: > 100 µM
[14]
  TGI: > 100 µM
[15]
  TGI: > 100 µM
[16]
  TGI: > 100 µM
[17]
  TGI: > 100 µM
[18]
  TGI: 90.2 µM
[19]
  TGI: > 100 µM
[20]
  TGI: > 100 µM
[21]
  TGI: 48.2 µM
[22]
  TGI: > 100 µM
[23]
  TGI: > 100 µM
[24]
  TGI: > 100 µM
[25]
  TGI: > 100 µM
[26]
  TGI: > 100 µM
[27]
  TGI: > 100 µM
[28]
  TGI: > 100 µM
[29]
  TGI: > 100 µM
[30]
  TGI: > 100 µM
[31]
  TGI: > 100 µM
[32]
  TGI: > 100 µM
[33]
  TGI: > 100 µM
[34]
  TGI: > 100 µM
[35]
  TGI: > 100 µM
[36]
  TGI: > 100 µM
[37]
  TGI: > 100 µM
[38]
  TGI: 81.9 µM
[39]
  TGI: > 100 µM
[40]
  TGI: > 86.6 µM
[41]
  TGI: > 100 µM
[42]
  TGI: > 100 µM
[43]
  TGI: > 100 µM
[44]
  TGI: > 100 µM
[45]
  TGI: > 100 µM
[46]
  TGI: > 100 µM
[47]
  TGI: > 100 µM
[48]
  TGI: > 100 µM
[49]
  TGI: > 100 µM
[50]
  TGI: > 100 µM
[51]
  TGI: > 100 µM
[52]
  TGI: > 100 µM
[53]
  TGI: > 100 µM
[54]
  TGI: > 100 µM
[55]
  TGI: > 100 µM
[56]
  TGI: > 100 µM
[57]
  TGI: > 100 µM
[58]
  TGI: > 100 µM
[59]
  TGI: > 100 µM
[60]
  TGI: > 100 µM
[61]
  TGI: > 100 µM
[62]
  TGI: > 100 µM
[63]
  TGI: > 100 µM
[64]
  TGI: > 100 µM
[65]
  TGI: > 100 µM
[66]
  TGI: > 100 µM

## CSC1(C)CC2C(CC1N1CCCCC1)C2(C)C (stereo not given)
[3]
  TGI: > 100 µM
[4]
  TGI: > 100 µM
[5]
  TGI: > 100 µM
[8]
  TGI: > 100 µM
[10]
  TGI: > 100 µM
[12]
  TGI: > 100 µM
[13]
  TGI: > 100 µM
[15]
  TGI: > 100 µM
[16]
  TGI: > 100 µM
[19]
  TGI: > 100 µM
[20]
  TGI: > 100 µM
[21]
  TGI: > 100 µM
[22]
  TGI: > 100 µM
[23]
  TGI: > 100 µM
[24]
  TGI: > 100 µM
[29]
  TGI: > 100 µM
[31]
  TGI: > 100 µM
[32]
  TGI: > 100 µM
[34]
  TGI: > 100 µM
[36]
  TGI: > 100 µM
[37]
  TGI: > 100 µM
[38]
  TGI: > 100 µM
[39]
  TGI: > 100 µM
[67]
  TGI: > 100 µM
[41]
  TGI: > 100 µM
[42]
  TGI: > 100 µM
[45]
  TGI: > 100 µM
[46]
  TGI: > 100 µM
[48]
  TGI: > 100 µM
[68]
  TGI: > 100 µM
[50]
  TGI: > 100 µM
[51]
  TGI: > 100 µM
[52]
  TGI: > 100 µM
[53]
  TGI: > 100 µM
[54]
  TGI: > 100 µM
[55]
  TGI: > 100 µM
[56]
  TGI: > 100 µM
[57]
  TGI: > 100 µM
[58]
  TGI: > 100 µM
[59]
  TGI: > 100 µM
[61]
  TGI: > 100 µM
[62]
  TGI: > 100 µM
[63]
  TGI: > 100 µM
[64]
  TGI: > 100 µM
